Experimental data from patent publication US7988972B2, “Immunoreactive peptides from Epstein-Barr virus” (Ortho-Clinical Diagnostics, Inc., priority 1993, dated 2011).

Tested on: peripheral blood lymphocytes (PBL)
Test: Proliferation assay of peripheral blood lymphocytes (3H-thymidine incorporation)
Assay type: cell-based, human
Settings: for 3H-thymidine Incorporation (cpm + S.D.) / S.I. (stimulation index): PBL from anti-VCA-positive, anti-EA-positive donor, 5 days
Description: Proliferation assays. T-cell proliferation assays using the native p17 or p50 polypeptide or the synthetic peptides were performed as previously described in detail (Pothen et al., Int. J. Cancer, 49:656-660, 1991). Briefly, peripheral blood lymphocytes (PBLO from sero-positive donors were isolated on FICOLL-HYPAQUE gradients, washed and resuspended in RPMI 1640 media containing 10% heat-inactivated human A^+ serum from a sero-negative donor. Cells (1×10^5 per 0.1 ml) were then added to each well in 96-well, round-bottomed tissue culture plates (Costar, Cambridge, Mass.). The different antigen preparations were added to triplicate wells in 0.1 ml volumes and the plates were incubated at 37° C. for 5 days. ^3H-thymidine (5 Ci per mM) was added at a concentration of 1 μCi per well over the last 4 hours of culture. The cells were then harvested with a multichannel sample harvester and ^3H-thymidine incorporation was determined using a Beckman Model LS 3801 liquid scintillation counter. Stimulation indices for the test antigens were calculated by dividing the average counts per minute (CPMO for the test antigens by the average CPM of the medium control wells.
PBL from asymptomatic EBV-infected individuals were tested for response to any of the three p17 synthetic peptides (Table 1) by a proliferation assay using lymphocytes previously shown to proliferate in the presence of native p17 (Pothen et al., Int. J. Cancer, 49:656-660, 1991). Different concentrations of the synthetic peptides were incubated with the PBL for 5 days and then proliferation was assayed by the incorporation of ^3H-thymidine. The native p17 purified from activated P3HR-1 cells gave a S.I. of 15.8 in this experiment. […] Neither of the other synthetic peptides induced a proliferation response at the concentrations tested.
PBL from 3 anti-VCA-positive anti-EA-antibody-negative individuals were also examined in the proliferation assay with the three synthetic peptides. Again, all 3 PBL preparations responded to the highest concentrations of p17.1 with S.I.'s ranging from 3.5-11. Two of the preparations (FIG. 2A,C) also proliferated in the presence of lower concentrations of antigen with S.I.'s of 3 and 5 respectively. […] These experiments established that T-lymphocytes from EBV-infected individuals, irrespective of the presence of antibody to EA, recognized a dominant epitope on p17.

ETFTETWNRFITHTE [p17.1, synthetic peptide from 17 Kd early antigen (EA-R) region of EBV]
S.I. (PBL from 3 anti-VCA-positive anti-EA-antibody-negative individuals, highest concentrations): 3.5-11
3H-thymidine Incorporation (cpm + S.D.) (3.12 μg/ml): 263 ± 57 cpm
S.I. (stimulation index) (3.12 μg/ml): 1.8
3H-thymidine Incorporation (cpm + S.D.) (12.5 μg/ml): 689 ± 88 cpm
S.I. (stimulation index) (12.5 μg/ml): 4.7
3H-thymidine Incorporation (cpm + S.D.) (50 μg/ml): 1584 ± 37 cpm
S.I. (stimulation index) (50 μg/ml): 10.8
S.I. (PBL preparation of FIG. 2A (anti-VCA-positive, anti-EA-negative), lower concentrations of antigen): 3
S.I. (PBL preparation of FIG. 2C (anti-VCA-positive, anti-EA-negative), lower concentrations of antigen): 5
proliferation response (unfractionated PBL of donors A and B, highest concentrations tested (100 μg per ml donor A, 50 μg per ml donor B)): proliferated
